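These data come from cells grown in 96-well plates and exposed to compound for 48 hours at five concentrations. GI50: concentration for 50% inhibition of growth.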 Activity calls are given as the source filed them. No stated cut-off is given here; in the data, active = GI50 up to about 1.1 µM and inactive = higher.
Assays:
Experiment in all cases: growth of human tumour cells (NCI), 48 h
[1] = tested on: 786-0
[2] = tested on: A498
[3] = tested on: A549
[4] = tested on: ACHN
[5] = tested on: CAKI-1
[6] = tested on: CCRF-CEM
[7] = tested on: COLO 205
[8] = tested on: DLD-1
[9] = tested on: DMS-114
[10] = tested on: DMS-273
[11] = tested on: EKVX
[12] = tested on: HCC 2998
[13] = tested on: HCT-15
[14] = tested on: HL-60
[15] = tested on: HOP-18
[16] = tested on: HOP-62
[17] = tested on: HT-29
[18] = tested on: IGROV-1
[19] = tested on: K562
[20] = tested on: KM-20L2
[21] = tested on: KM12
[22] = tested on: LOX IMVI
[23] = tested on: LXFL 529
[24] = tested on: M14
[25] = tested on: M19-MEL
[26] = tested on: MOLT-4
[27] = tested on: Malme-3M
[28] = tested on: NCI-H226
[29] = tested on: NCI-H23
[30] = tested on: NCI-H460
[31] = tested on: NCI-H522
[32] = tested on: OVCAR-3
[33] = tested on: OVCAR-4
[34] = tested on: OVCAR-5
[35] = tested on: OVCAR-8
[36] = tested on: RPMI-8226
[37] = tested on: RXF 393
[38] = tested on: RXF 631
[39] = tested on: SF-268
[40] = tested on: SF-295
[41] = tested on: SF-539
[42] = tested on: SK-MEL-28
[43] = tested on: SK-MEL-2
[44] = tested on: SK-MEL-5
[45] = tested on: SK-OV-3
[46] = tested on: SN12C
[47] = tested on: SNB-19
[48] = tested on: SNB-75
[49] = tested on: SW-620
[50] = tested on: TK-10
[51] = tested on: UACC-257
[52] = tested on: UACC-62
[53] = tested on: UO-31
[54] = tested on: XF498

Compound: CCOc1ccc(NC(=O)CC2SC(Nc3ccc(Cl)cc3)=NC2=O)cc1 (centres undefined)
- GI50 [1]: > 100 µM (inactive)
- GI50 [2]: 44.8 µM (inactive)
- GI50 [3]: > 100 µM (inactive)
- GI50 [4]: > 100 µM (inactive)
- GI50 [5]: 21.5 µM (inactive)
- GI50 [6]: 18.3 µM (inactive)
- GI50 [7]: > 100 µM (inactive)
- GI50 [8]: 36 µM (inactive)
- GI50 [9]: > 100 µM (inactive)
- GI50 [10]: > 100 µM (inactive)
- GI50 [11]: > 100 µM (inactive)
- GI50 [12]: > 100 µM (inactive)
- GI50 [13]: 95.3 µM
- GI50 [14]: 24.2 µM (inactive)
- GI50 [15]: > 100 µM (inactive)
- GI50 [16]: > 100 µM (inactive)
- GI50 [17]: > 100 µM (inactive)
- GI50 [18]: > 100 µM (inactive)
- GI50 [19]: 23.9 µM (inactive)
- GI50 [20]: > 100 µM (inactive)
- GI50 [21]: > 100 µM (inactive)
- GI50 [22]: > 100 µM (inactive)
- GI50 [23]: 41.8 µM (inactive)
- GI50 [24]: > 100 µM (inactive)
- GI50 [25]: > 100 µM (inactive)
- GI50 [26]: 29.4 µM (inactive)
- GI50 [27]: > 100 µM (inactive)
- GI50 [28]: > 100 µM (inactive)
- GI50 [29]: > 100 µM (inactive)
- GI50 [30]: > 100 µM (inactive)
- GI50 [31]: > 10 µM (inactive)
- GI50 [32]: > 100 µM (inactive)
- GI50 [33]: > 100 µM (inactive)
- GI50 [34]: > 100 µM (inactive)
- GI50 [35]: 49.7 µM (inactive)
- GI50 [36]: 58.6 µM (inactive)
- GI50 [37]: 40.8 µM (inactive)
- GI50 [38]: > 100 µM (inactive)
- GI50 [39]: > 100 µM (inactive)
- GI50 [40]: > 100 µM (inactive)
- GI50 [41]: > 100 µM (inactive)
- GI50 [42]: > 100 µM (inactive)
- GI50 [43]: > 100 µM (inactive)
- GI50 [44]: > 100 µM (inactive)
- GI50 [45]: > 100 µM (inactive)
- GI50 [46]: > 100 µM (inactive)
- GI50 [47]: > 100 µM (inactive)
- GI50 [48]: 29.8 µM (inactive)
- GI50 [49]: 98.9 µM (inactive)
- GI50 [50]: > 100 µM (inactive)
- GI50 [51]: > 100 µM (inactive)
- GI50 [52]: > 100 µM (inactive)
- GI50 [53]: > 100 µM (inactive)
- GI50 [54]: > 100 µM (inactive)
